Results on one compound are retold here after publication PMC10035951, “Selenium-analogs based on natural sources as cancer-associated carbonic anhydrase isoforms IX and XII inhibitors” (Journal of Enzyme Inhibition and Medicinal Chemistry, 2023).

Assay [1] concerns hCA isoforms I, II, VA, IX, and XII. In words: CA inhibition, summary statements over all tested isoforms. The class given is biochemical, human. As to conditions: from the Ki values of Table 1. As to the method:
(§1) An Applied Photophysics stopped-flow instrument has been used for assaying the CA catalysed CO2 hydration activity.[38] Phenol red (at a concentration of 0.2 mM) has been used as an indicator, working at the absorbance maximum of 557 nm, with 20 mM Hepes (pH 7.5) as a buffer and 20 mM Na2SO4 (for maintaining constant the ionic strength), following the initial rates of the CA-catalysed CO2 hydration reaction for a period of 10–100 s. The CO2 concentrations ranged from 1.7 to 17 mM for the determination of the kinetic parameters and inhibition constants. For each inhibitor, at least six traces of the initial 5 − 10% of the reaction have been used for determining the initial velocity. The uncatalyzed rates were determined in the same manner and subtracted from the total observed rates. Stock solutions of inhibitor (0.1 mM) were prepared in distilled − deionized water and dilutions up to 0.01 nM were done thereafter with the assay buffer. Inhibitor and enzyme solutions were preincubated together for 15 min at room temperature before assay to allow for the formation of the E − I complex. The inhibition constants were obtained by nonlinear least-squares methods using PRISM 3 and the Cheng − Prusoff equation, as reported earlier,[39]^,[40] and represent the mean from at least three different determinations. The enzyme concentrations were in the range 3–11 nM. All human CA (hCA) isoforms were recombinant ones obtained in-house as reported earlier.[41]^,[42]

The next assay deals with T1, hCA XII (Homo sapiens, UniProt O43570).
T1 construct: made in house
The assay can be described thus: CA catalysed CO2 hydration, stopped-flow inhibition. The class given is biochemical. The settings on record: recombinant hCA XII, stopped-flow CO2 hydration, 15 min preincubation; read-out: Ki hCA XII. As to the method:
as §1, with “[…].” for “For each inhibitor, at least six traces of the initial 5 − 10% of the reaction have been used for determining the initial velocity.”

In the next assay the target is T2, hCA IX (Homo sapiens, UniProt Q16790).
T2 construct: made in house
Described as above. As to conditions: recombinant hCA IX, stopped-flow CO2 hydration, 15 min preincubation. The class given is biochemical. Here is the method: (§2) The uncatalyzed rates were determined in the same manner and subtracted from the total observed rates. Stock solutions of inhibitor (0.1 mM) were prepared in distilled − deionized water and dilutions up to 0.01 nM were done thereafter with the assay buffer. Inhibitor and enzyme solutions were preincubated together for 15 min at room temperature before assay to allow for the formation of the E − I complex. The inhibition constants were obtained by nonlinear least-squares methods using PRISM 3 and the Cheng − Prusoff equation, as reported earlier,[39]^,[40] and represent the mean from at least three different determinations. […] All human CA (hCA) isoforms were recombinant ones obtained in-house as reported earlier.[41]^,[42]

Another assay concerns the target T3, hCA II (Homo sapiens, UniProt P00918).
T3 construct: made in house
Described as above. It counts as biochemical. The settings on record: recombinant hCA II, stopped-flow CO2 hydration, 15 min preincubation; read-out: Ki hCA II. Here is the method: as §2

In a further assay the target is T4, hCA I (Homo sapiens, UniProt P00915).
T4 construct: made in house
The description is as above. The class given is biochemical. The settings on record: recombinant hCA I, stopped-flow CO2 hydration, 15 min preincubation; read-out: Ki hCA I. As to the method:
as §2

T1 sequence (O43570 25-354): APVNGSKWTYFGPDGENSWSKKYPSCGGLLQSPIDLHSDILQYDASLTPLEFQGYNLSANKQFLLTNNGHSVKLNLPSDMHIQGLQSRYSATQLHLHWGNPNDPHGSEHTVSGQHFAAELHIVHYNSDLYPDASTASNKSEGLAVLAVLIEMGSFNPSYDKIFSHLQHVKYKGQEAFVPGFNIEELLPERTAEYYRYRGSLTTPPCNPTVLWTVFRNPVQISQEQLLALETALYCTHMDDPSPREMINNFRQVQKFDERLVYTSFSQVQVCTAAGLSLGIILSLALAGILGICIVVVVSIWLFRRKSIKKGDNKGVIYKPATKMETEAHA
T4 sequence (P00915 whole entry): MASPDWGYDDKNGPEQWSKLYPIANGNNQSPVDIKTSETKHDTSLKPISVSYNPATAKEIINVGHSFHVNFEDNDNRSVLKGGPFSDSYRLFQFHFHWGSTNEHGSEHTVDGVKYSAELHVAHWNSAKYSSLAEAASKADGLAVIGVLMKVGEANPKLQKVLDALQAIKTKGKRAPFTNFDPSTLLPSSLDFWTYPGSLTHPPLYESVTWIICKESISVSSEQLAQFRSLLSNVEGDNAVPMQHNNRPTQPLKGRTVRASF

For the compound `C#CC[Se]C(=O)c1ccccc1Nc1cccc(C(F)(F)F)c1` [Compound 19b], the “isoform selectivity (in words)” value in assay [1] was “selectivity for tumour-associated isoform IX”. Besides, the Ki at hCA XII was greater than 100 µM; on hCA IX it was 9.5 µM; on hCA II, greater than 100 µM; on hCA I, greater than 100 µM.
